Reference: US10047164B2, “Methods and compositions for the treatment of pancreatic cancer” (Opsona Therapeutics Ltd., priority 2012, dated 2018)

Experiments:
[1] = system: pancreatic tumours in KPC mice; details: Science 2009; cited from earlier work
[2] = system: advanced pancreatic cancer; details: patients with advanced pancreatic cancer; cited from earlier work
[3] = system: KPC cell line orthotopic pancreatic tumours; details: treatment at the induction of tumours; over 49 days (FIG. 1); OPN-305 10 mg/kg i.v. once weekly, Gemcitabine 100 mg/kg i.p. twice weekly, Abraxane 10 mg/kg i.v. day 0
From the text: A preclinical mouse model of pancreatic cancer was established where a KPC cell line derived from the genetically engineered ‘KPC’ mouse with pancreas-specific mutant Kras and mutant TP53 genetic background (LSL-KrasG12D; p53R172H, Pdx1-Cre) backcrossed several generations with C57Bl/6 mice was implanted as allograft, orthotopically in the pancreas of C57bl/6 (B6) mice. In brief, a subcutaneous tumour was first established by injecting 2.5 million cells under the skin of C57Bl/6 mice. Ten days later, the tumour was excised and chopped into smaller pieces, roughly 1 mm^3 in size, and implanted orthotopically into pancreas of C57Bl/6 mice. For orthotopic implantation into the pancreas, each mouse was anesthetized with 2.5% Avertin, 0.013 ml/g B.W. All surgical procedures were performed under aseptic conditions with use of sterile gloves and autoclaved instruments. The skin was disinfected with betadine followed by alcohol and this procedure was repeated twice. A left lateral oblique incision was made through the skin and then through the body wall just below the stomach. […] The growth of orthotopic tumours were measured over the period of 12-16 weeks by non-invasive ultrasound (Vevo2100, VisualSonic). […] The orthotopically implanted tumours were measured by ultrasound 5 days post-surgery and randomized into various treatment arms as below: • 1. […]

Compound	tumours demonstrating a change in growth kinetics after treatment [1] [%]	improvement in median survival duration [2] [week]	tumour volume [3]
Nc1ccn([C@@H]2O[C@H](CO)[C@@H](O)C2(F)F)c(=O)n1 [Gemcitabine]	12	5	–
OPN-305: humanized version of T2.5, a murine IgG1 anti-TLR2 antibody; described in WO2011/003925	–	–	reduced tumour volume to a greater extent than treatment with a combination of Gemcitabine+Abraxane
